The record followed here is patent US6900343B1, “Method for the purification of metallocenes” (Basell Polyolefine GmbH, priority 1998, dated 2005).

Series [1] can be described thus: Propylene polymerization with supported metallocene/MAO/SiO2 catalyst. Conditions: supported on SiO2 with MAO (Al/Zr=215); liquid propylene, 60° C., 1 hour. The procedure:
35.1 mg (0.047 mmol) of (1) were stirred in 2.1 ml of 30% strength MAO solution in toluene (Al/Zr=215) for 60 minutes at room temperature. 2 g of SiO2 (Grace XPO2107, pretreated at 140° C., 10 mbar, 10 hours) were subsequently added and the mixture was stirred for another 10 minutes. The solvent was removed in an oil pump vacuum.
A dry 2 l reactor was flushed firstly with nitrogen and subsequently with propylene and charged with 1.5 l of liquid propylene. 2 ml of TEA (20% strength in Varsol) were added thereto and the mixture was stirred for 15 minutes. The catalyst system prepared above (0.886 g) was subsequently resuspended in 20 ml of heptane and then injected into the reactor and rinsed in with 15 ml of heptane. The reaction mixture was heated to the polymerization temperature of 60° C. and polymerization was carried out for 1 hour. The polymerization was stopped by venting the remaining propylene. The polymer was dried in a vacuum drying oven. This gave 470 g of polypropylene powder. […] The catalyst activity was 0.53 kg of PP/g of catalyst x h.
27.1 mg (0.047 mmol) of dimethylsilanediylbis(2-methyl-4,5-benzoindenyl)zirconium dichloride were stirred in 2.1 ml of 30% strength MAO solution in toluene (Al/Zr=215) for 60 minutes at room temperature. […]

Series [2] can be described thus: Solubility comparison in toluene at room temperature.

For the compound `CC1=Cc2c(ccc3ccccc23)[C]12[Si](C)(C)[C]1(C(C)=Cc3c1ccc1ccccc31)[Zr]2([Cl])[O]c1ccc(C(C)(C)C)cc1C(C)(C)C` (stereo not shown) [Compound 1, Dimethylsilanediylbis(2-methyl-4,5-benzoindenyl)zirconium Monochloride mono(2,4-di-tert-butylphenoxide)], the catalyst activity in series [1] is 0.53 kg of PP/g of catalyst x h. In series [2], this compound gave a solubility above 13 mM.

Turning to `CCC(C)(C)c1ccc([O][Zr]2([Cl])[C]3(C(C)=Cc4c3ccc3ccccc43)[Si](C)(C)[C]23C(C)=Cc2c3ccc3ccccc23)c(C(C)(C)CC)c1` (stereo not shown) [Compound 6, Dimethylsilanediylbis(2-methyl-4,5-benzoindenyl)-zirconium Monochloride mono(2,4-di-tert-pentylphenoxide)], the solubility result in series [2] is listed as “about 17.7 mmol/l”.

In the case of `CC1=Cc2c(ccc3ccccc23)[C]12[Si](C)(C)[C]1(C(C)=Cc3c1ccc1ccccc31)[Zr]2([Cl])[Cl]` (stereo not shown) [dimethylsilanediylbis(2-methyl-4,5-benzoindenyl)zirconium dichloride, reference compound], the catalyst activity in series [1] is reported as 0.46 kg of PP/g of catalyst x h. In addition, the solubility entry in series [2] was “about 0.36 mmol/l”.

On to `Cc1cc2ccccc2[c-]1[Si](C)(C)[c-]1c(C)cc2ccccc21.[Cl-].[Cl-].[Zr+4]` (stereo not shown) [dimethylsilanediylbis(2-methylindenyl)zirconium dichloride, reference compound], for which, in series [2], the solubility entry is reported as “about 2.1 mmol/l”.

Compound “Dimethylsilanediyl-bis(2-methylindenyl)zirconium Monochloride mono(2,4-di-tert-butylphenoxide) [Compound 2]” displayed a solubility in series [2] above 15 mM.
